IC50 data for 21 molecules are collected here from patent US20060079453A1, “Hla binding peptides and their uses” (priority 2002, published 2006).

Read-outs that look alike come from different tables or passages of the source. No end group written: not given here. Some results are limits rather than exact numbers.

Common to all, as to assay: biochemical
What all share (format): binding

Assay [1] deals with HLA-DR DRB1*0101 (DR1) (Homo sapiens, UniProt P01903+P01911, A100R/D57E/F55L/F60I/F76Y/I96L/L162R/M171V/P40L/Q125E/R42F/V115G/Y59C).
The target in assay [2] is HLA-DR DRB1*0301 (DR3) (Homo sapiens, UniProt P01903+P01911, A100K/A102G/A103R/A169T/F55Y/I96L/K41T/L162R/M171V/P40S/Q125H/Q178H/Q39Y/R42S/S66N/T106N/T262R/W38E/Y61H).
Sequence of HLA-DR DRB1*0301 (DR3) (P01903 26-254 limits assumed, other chains not shown): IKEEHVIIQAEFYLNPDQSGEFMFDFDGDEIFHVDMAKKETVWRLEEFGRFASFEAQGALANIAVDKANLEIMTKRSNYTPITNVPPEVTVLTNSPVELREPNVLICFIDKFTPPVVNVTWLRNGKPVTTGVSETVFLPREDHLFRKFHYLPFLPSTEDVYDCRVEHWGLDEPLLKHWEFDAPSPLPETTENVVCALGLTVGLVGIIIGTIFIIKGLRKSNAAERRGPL
The target of assay [3] is HLA-DR DRB1*0401 (DR4) (Homo sapiens, UniProt P01903+P01911, A100K/A169T/F76Y/I96L/K127E/L162R/M171V/N62H/P40V/Q125Y/R42H/S133A/S149N/S66Y/V115G/V209L/W38E). To be noted: DRB1 *0401.
Assay [4] has as its target HLA-DR DRB1*0701 (DR7) (Homo sapiens, UniProt P01903+P01911, A100R/A102G/A103Q/D57E/D86V/E43K/F76Y/K127E/L162R/M171V/P40G/Q125H/Q99D/R33Q/R42Y/R54Q/S133A/S66F/T210M/V115G/Y107V/Y59L/Y89S).
Assay [5] addresses HLA-DR DRB1*1101 (DR11) (Homo sapiens, UniProt P01903+P01911, A100R/A169T/A87E/I96F/K41T/L162R/M171V/P40S/Q125H/Q178H/Q39Y/Q99D/R42S/S66Y/T262R/V115G/W38E).
Assay [6] addresses HLA-DR DRB1*1302 (DR13) (Homo sapiens, UniProt P01903+P01911, A100E/A169T/K41T/L162R/M171V/P40S/Q125H/Q178H/Q39Y/Q99D/R42S/S66N/T262R/V115G/W38E/Y61H).
Assay [7] deals with HLA-DR DRB1*1501 (DR15) (Homo sapiens, UniProt P01903+P01911).
For assay [8], the target named is HLA-DR DRB3*0101 (DR52) (Homo sapiens, UniProt P01903+P79483).
Assay [9] has as its target HLA-DR DRB4*0101 (DR53) (Homo sapiens, UniProt P01903+P13762, G164S).
Assay [10] has as its target HLA-DR DRB5*0101 (DR51) (Homo sapiens, UniProt P01903+Q30154).
Assay [11] addresses HLA-DR DRB1*0901 (DR9) (Homo sapiens, UniProt P01903+P01911, A100R/A103E/D57H/D86V/F55Y/F60I/F76Y/I96F/K127E/L162R/M171V/P40D/Q125H/Q99R/R33Q/R42F/S133A/S66N/T210M/V115G/W38K/Y107V/Y59G/Y89S). To be noted: DRB1 *0901.

Sequence of HLA-DR DRB1*1101 (DR11) (P01903 26-254 limits assumed, other chains not shown): as above
Sequence of HLA-DR DRB1*1302 (DR13) (P01903 26-254 limits assumed, other chains not shown): as above

Take GAPLGGALRALAHGV: the IC50 in assay [1] was 0.068 µM; in assay [2] it was above 486 µM; in assay [3], 15 µM; in assay [4], 1.42 µM; in assay [5], 0.083 µM; in assay [6], 0.34 µM. Besides, the IC50 in [7] was 2.07 µM; in assay [8], above 51.1 µM; in assay [9], 4.89 µM; in assay [10], 5.4 µM.

Consider `CSCC[C@H](NC(=O)[C@@H]1CCCN1C(=O)[C@H](CC(=O)O)NC(=O)[C@@H](N)Cc1ccc(O)cc1)C(=O)N[C@@H](Cc1ccccc1)C(=O)N[C@@H](CCCCN)C(=O)N[C@@H](Cc1ccc(O)cc1)C(=O)N[C@@H](Cc1c[nH]cn1)C(=O)N[C@@H](CC(C)C)C(=O)N[C@H](C(=O)N[C@H](C(=O)N[C@@H](C)C(=O)N[C@@H](CCC(N)=O)C(=O)N[C@H](C(=O)N[C@@H](CCCNC(=N)N)C(=O)O)C(C)C)C(C)C)[C@@H](C)O`, for which the IC50 in assay [1] (DRB1 *0101) is 0.009 µM; in assay [2] it was above 75 µM; in [3], 0.019 µM; in [4] (DRB1 *0701) it was 0.158 µM; in [5] (DRB1 *1101) it was 0.252 µM; in assay [6] (DRBI *1302), 1.01 µM. Moreover, the IC50 worked out at 1.35 µM in assay [7] (DRBI *1501), 8.14 µM in assay [8], 0.553 µM in [9] (DRB4 *0101) and 0.062 µM in assay [10] (DRB5 *0101).

Turning to `CC(C)C[C@H](NC(=O)CNC(=O)[C@H](CC(N)=O)NC(=O)[C@H](Cc1ccc(O)cc1)NC(=O)[C@@H](NC(=O)[C@H](CC(=O)O)NC(=O)[C@@H](N)CC(C)C)C(C)C)C(=O)N[C@@H](CC(C)C)C(=O)N1CCC[C@H]1C(=O)N1CCC[C@H]1C(=O)N[C@@H](Cc1ccc(O)cc1)C(=O)N[C@@H](C)C(=O)N[C@@H](CO)C(=O)N[C@@H](CS)C(=O)N[C@@H](Cc1c[nH]cn1)C(=O)O`, the IC50 in assay [1] (DRB1 *0101) was 0.015 µM; in [3], 0.348 µM; in assay [4] (DRB1 *0701), above 83.3 µM; in assay [11], 31.3 µM; in assay [6] (DRBI *1302) it was above 35 µM; in [7] (DRBI *1501), 3.03 µM. Besides, the IC50 is above 15 µM in assay [8], above 10.9 µM in assay [9] (DRB4 *0101) and 25.8 µM in [10] (DRB5 *0101).

With GMLPVCPLIPGSSTTSTGP, the IC50 is above 900 µM in assay [2], 0.4 µM in assay [3], 2.5 µM in [5] (DRB1 *1101) and above 25 µM in assay [8].

Turning to AKSTWYGKPTGAGPKDNGGA, the IC50 in assay [2] is above 30 µM; in assay [4] (DRB1 *0701) it was above 12.5 µM; in [8] it was above 20 µM; in assay [9] (DRB4 *0101), 10 µM.

With DIAAKYKELGY, the IC50 in [2] is above 900 µM; in assay [3], above 0.471 µM; in assay [5] (DRB1 *1101) it was above 10 µM; in [8], above 25 µM; in assay [10] (DRB5 *0101), at least 200 µM.

In the case of AFGSMAKKGEEQNVRSAGEL, the IC50 was above 30 µM in assay [2]; above 0.667 µM in assay [3]; above 12.5 µM in assay [4] (DRB1 *0701); 1.82 µM in [5] (DRB1 *1101); above 33.3 µM in assay [8].

`C[C@@H](O)[C@H](NC(=O)[C@H](CCCCN)NC(=O)[C@H](CCC(=O)O)NC(=O)[C@H](CCC(=O)O)NC(=O)CNC(=O)[C@H](Cc1ccccc1)NC(=O)[C@H](CCCNC(=N)N)NC(=O)[C@H](Cc1ccccc1)NC(=O)[C@H](CO)NC(=O)[C@H](CCC(=O)O)NC(=O)[C@H](CCC(=O)O)NC(=O)[C@@H]1CCCN1C(=O)[C@@H]1CCCN1)C(=O)N[C@H](C(=O)N1CCC[C@H]1C(=O)N[C@@H](CO)C(=O)O)[C@@H](C)O`: the IC50 in assay [1] (DRB1 *0101) is above 2.5 µM; in assay [2], above 900 µM; in assay [4] (DRB1 *0701), above 12.5 µM; in assay [5] (DRB1 *1101), above 10 µM; in assay [8], above 14.3 µM; in [10] (DRB5 *0101), above 2.86 µM.

Regarding IAKVPPGPNITAEYGDKWLD, the IC50 in assay [2] is above 30 µM; in assay [3], above 0.667 µM; in assay [4] (DRB1 *0701) it was above 12.5 µM; in assay [8], above 20 µM.

On to TAEYGDKWLDAKSTWYGKPT, for which the IC50 in [2] is above 30 µM; in assay [3] it was above 0.667 µM; in assay [4] (DRB1 *0701) it was 3.13 µM; in assay [8] it was above 20 µM; in assay [9] (DRB4 *0101), 10 µM.

`CC[C@H](C)[C@H](NC(=O)[C@@H](NC(=O)[C@@H]1CCCN1C(=O)CN)C(C)C)C(=O)N1CCC[C@H]1C(=O)N[C@@H](CCC(N)=O)C(=O)N[C@@H](CC(=O)O)C(=O)N[C@@H](Cc1c[nH]c2ccccc12)C(=O)N[C@@H](CO)C(=O)N[C@H](C(=O)N[C@@H](CCC(=O)O)C(=O)N[C@@H](CS)C(=O)N[C@@H](CCSC)C(=O)N[C@H](C(=O)N[C@H](C(=O)O)[C@@H](C)O)[C@@H](C)O)[C@@H](C)O`: the IC50 in assay [2] amounted to 52.1 µM; in [8], 20.3 µM; in assay [9] (DRB4 *0101) it was 0.961 µM.

In the case of GAGPKDNGGACGYKDVDKAP, the IC50 was above 30 µM in assay [2], above 0.667 µM in assay [3], above 12.5 µM in [4] (DRB1 *0701) and above 20 µM in assay [8].

Regarding AATYNFAVLKLMGRGTKF, the IC50 was above 52.9 µM in assay [2]; 0.017 µM in assay [5] (DRB1 *1101); 70 µM in assay [8]; 1.22 µM in assay [9] (DRB4 *0101); 0.018 µM in [10] (DRB5 *0101).

Take `CSCC[C@H](NC(=O)[C@@H](N)Cc1c[nH]c2ccccc12)C(=O)N[C@@H](Cc1ccc(O)cc1)C(=O)N[C@@H](Cc1ccc(O)cc1)C(=O)N[C@@H](Cc1c[nH]cn1)C(=O)NCC(=O)N[C@@H](CCC(N)=O)C(=O)N[C@@H](CCCNC(=N)N)C(=O)N[C@@H](Cc1c[nH]cn1)C(=O)N[C@@H](CO)C(=O)N[C@@H](CC(=O)O)C(=O)N[C@@H](CCC(=O)O)C(=O)N[C@@H](Cc1c[nH]cn1)C(=O)N[C@@H](Cc1c[nH]cn1)C(=O)N[C@@H](Cc1c[nH]cn1)C(=O)O`: the IC50 was at least 50 µM in [1] (DRB1 *0101); above 900 µM in assay [2]; above 250 µM in assay [4] (DRB1 *0701); above 10 µM in assay [5] (DRB1 *1101); above 7.69 µM in assay [8]; above 5 µM in assay [10] (DRB5 *0101).

On to TLERPKTLSPGKNGV, for which the IC50 is above 52.6 µM in assay [5] (read-out: DRB1 *1101); 0.835 µM in assay [6] (read-out: DRBI *1302); 23.3 µM in [7] (read-out: DRBI *1501); above 263 µM in [8] (read-out: DRB3 *0101); 25.7 µM in [9] (read-out: DRB4 *0101); 11.3 µM in assay [10] (read-out: DRB5 *0101).

For the molecule `CC[C@H](C)[C@H](NC(=O)[C@H](Cc1ccccc1)NC(=O)[C@H](C)NC(=O)[C@H](CCCNC(=N)N)NC(=O)[C@H](CCC(=O)O)NC(=O)[C@H](CC(C)C)NC(=O)[C@H](Cc1ccccc1)NC(=O)[C@H](CCSC)NC(=O)[C@H](CC(C)C)NC(=O)[C@H](CCC(N)=O)NC(=O)[C@@H](N)CC(=O)O)C(=O)N[C@@H](CC(=O)O)C(=O)N1CCC[C@H]1C(=O)N[C@@H](CC(C)C)C(=O)NCC(=O)O`, the IC50 in [2] was above 19.7 µM; in assay [8], 17.1 µM; in assay [9] (DRB4 *0101), 0.0066 µM.

Turning to QKGRGYRGQHQAHSLERVCH, the IC50 in [2] is above 47.4 µM; in [3], 0.088 µM; in [5] (DRB1 *1101), 30.2 µM; in [7] (DRBI *1501), above 9.1 µM; in [8], above 500 µM; in [9] (DRB4 *0101) it was 18 µM. The IC50 in assay [10] (DRB5 *0101) turned out to be 9.76 µM.

As for YLVCGERGFFYTKPT, the IC50 in assay [5] (DRB1 *1101) is above 60.6 µM; in [6] (DRBI *1302), 3.47 µM; in assay [7] (DRBI *1501), above 25.6 µM; in [8] it was 12.8 µM; in [9] (DRB4 *0101) it was 40.4 µM; in assay [10] (DRB5 *0101), above 28.4 µM.

Regarding TPDKLTGPFTVRYTTEGGTK, the IC50 is above 900 µM in [2], above 0.667 µM in assay [3], above 12.5 µM in [4] (DRB1 *0701) and above 25 µM in assay [8].

As for VRYTTEGGTKSEVEDVIPEG, the IC50 in [2] was above 30 µM; in assay [3], above 0.667 µM; in [4] (DRB1 *0701), above 12.5 µM; in [8] it was above 25 µM.

Turning to QAKKEKLNIWSEDNADSGQ, the IC50 is above 900 µM in assay [2], above 250 µM in assay [4] (DRB1 *0701) and above 5.56 µM in [8].
